In PubChem BioAssay (NCI):
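Where inhibition never reached the appropriate level, the endpoint shown equals the highest concentration tested. Otherwise, values were interpolated linearly from a five-concentration, 48-hour dose response in 96-well plates. The concentration for 50% growth inhibition is given as GI50. TGI: total growth inhibition.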

Tests used:
Test in all cases: NCI tumour cell line growth inhibition, 48 h
[1] = system: 786-0 renal
[2] = system: A498 renal
[3] = system: A549 NSCLC
[4] = system: ACHN renal
[5] = system: BT-549 breast
[6] = system: CAKI-1 renal
[7] = system: CCRF-CEM leukemia
[8] = system: COLO 205 colon
[9] = system: DU-145 prostate
[10] = system: EKVX NSCLC
[11] = system: HCC-2998 colon
[12] = system: HCT-116 colon
[13] = system: HCT-15 colon
[14] = system: HL-60(TB) leukemia
[15] = system: HOP-62 NSCLC
[16] = system: HOP-92 NSCLC
[17] = system: HS 578T breast
[18] = system: HT29 colon
[19] = system: IGROV1 ovarian
[20] = system: K-562 leukemia
[21] = system: KM12 colon
[22] = system: LOX IMVI melanoma
[23] = system: M14 melanoma
[24] = system: MALME-3M melanoma
[25] = system: MCF7 breast
[26] = system: MDA-MB-231 breast
[27] = system: MDA-MB-435
[28] = system: MOLT-4 leukemia
[29] = system: NCI-H226 lung
[30] = system: NCI-H23 lung
[31] = system: NCI-H460 lung
[32] = system: NCI-H522 lung
[33] = system: NCI/ADR-RES ovarian
[34] = system: OVCAR-3 ovarian
[35] = system: OVCAR-4 ovarian
[36] = system: OVCAR-5 ovarian
[37] = system: OVCAR-8 ovarian
[38] = system: PC-3 prostate
[39] = system: RPMI-8226 leukemia
[40] = system: SF-268 CNS
[41] = system: SF-295 CNS
[42] = system: SF-539 CNS
[43] = system: SK-MEL-2 melanoma
[44] = system: SK-MEL-28 melanoma
[45] = system: SK-MEL-5 melanoma
[46] = system: SK-OV-3 ovarian
[47] = system: SN12C renal
[48] = system: SNB-19 CNS
[49] = system: SNB-75 CNS
[50] = system: SR leukemia
[51] = system: SW-620 colon
[52] = system: T-47D breast
[53] = system: TK-10 renal
[54] = system: U251 CNS
[55] = system: UACC-257 melanoma
[56] = system: UACC-62 melanoma
[57] = system: UO-31 renal
[58] = system: RXF 393 renal

`CC(Nc1ncnc2ccc(-c3cnc(N)nc3)cc12)c1ccccc1` (stereo not drawn) was tested, and the GI50 [1] was 5.33 µM, the TGI [1] was > 100 µM and the GI50 [2] was 1.42 µM. The TGI [2] was 6.52 µM, the GI50 [3] was 6.48 µM and the TGI [3] was > 100 µM. For the same molecule, the GI50 [4] was 3.02 µM, the TGI [4] was 18.6 µM and the GI50 [5] was 2.22 µM. For the same molecule, the TGI [5] was 12 µM, the GI50 [6] was 3.17 µM and the TGI [6] was 17.8 µM. For the same molecule, the GI50 [7] was 7.7 µM, the TGI [7] was > 100 µM and the GI50 [8] was 13.5 µM. For the same molecule, the TGI [8] was 47.5 µM, the GI50 [9] was 4.34 µM and the TGI [9] was > 100 µM. For the same molecule, the GI50 [10] was 1.97 µM, the TGI [10] was 10.4 µM and the GI50 [11] was 8.05 µM. The TGI [11] was 50.8 µM, the GI50 [12] was 8.01 µM and the TGI [12] was 24.3 µM. For the same molecule, the GI50 [13] was 4.12 µM, the TGI [13] was 54.6 µM and the GI50 [14] was 14.8 µM. The TGI [14] was 43.7 µM, the GI50 [15] was 5.76 µM and the TGI [15] was > 100 µM. The GI50 [16] was 1.04 µM, the TGI [16] was 5.62 µM and the GI50 [17] was 2.15 µM. It also gave a TGI [17] of 8.64 µM, a GI50 [18] of 8.41 µM and a TGI [18] of 46.4 µM. It also gave a GI50 [19] of 1.95 µM, a TGI [19] of 8.26 µM and a GI50 [20] of 6.32 µM. The TGI [20] was > 100 µM, the GI50 [21] was 7.91 µM and the TGI [21] was 36.3 µM. It also gave a GI50 [22] of 4.26 µM, a TGI [22] of 16.9 µM and a GI50 [23] of 6.76 µM. The TGI [23] was 31.6 µM, the GI50 [24] was 3.03 µM and the TGI [24] was 19.5 µM. It also gave a GI50 [25] of 4.1 µM, a TGI [25] of 24.4 µM and a GI50 [26] of 3.38 µM. It also gave a TGI [26] of 15.5 µM, a GI50 [27] of 11.1 µM and a TGI [27] of 42 µM. For the same molecule, the GI50 [28] was 5.37 µM, the TGI [28] was > 100 µM and the GI50 [29] was 3.57 µM. It also gave a TGI [29] of 22 µM, a GI50 [30] of 9.2 µM and a TGI [30] of 37.4 µM. For the same molecule, the GI50 [31] was 4.79 µM, the TGI [31] was 31.1 µM and the GI50 [32] was 4.9 µM. The TGI [32] was > 100 µM, the GI50 [33] was 9.42 µM and the TGI [33] was 47.3 µM. The GI50 [34] was 4.59 µM, the TGI [34] was 20.1 µM and the GI50 [35] was 4.55 µM. The TGI [35] was 43.4 µM, the GI50 [36] was 3.4 µM and the TGI [36] was 37.5 µM. It also gave a GI50 [37] of 10.8 µM, a TGI [37] of 30.2 µM and a GI50 [38] of 4.05 µM. The TGI [38] was > 100 µM, the GI50 [39] was 4.66 µM and the TGI [39] was 42.9 µM. The GI50 [40] was 5.26 µM, the TGI [40] was 34.5 µM and the GI50 [41] was 4.5 µM. It also gave a TGI [41] of 27 µM, a GI50 [42] of 6.2 µM and a TGI [42] of 19.2 µM. For the same molecule, the GI50 [43] was 20.4 µM, the TGI [43] was > 100 µM and the GI50 [44] was 9.05 µM. For the same molecule, the TGI [44] was 53.1 µM, the GI50 [45] was 7.28 µM and the TGI [45] was 20.8 µM. The GI50 [46] was 6.67 µM, the TGI [46] was > 100 µM and the GI50 [47] was 2.9 µM. It also gave a TGI [47] of 15.7 µM, a GI50 [48] of 9.29 µM and a TGI [48] of 44.1 µM. The GI50 [49] was 2.76 µM, the TGI [49] was 23.1 µM and the GI50 [50] was 4.08 µM. For the same molecule, the TGI [50] was > 100 µM, the GI50 [51] was 15.2 µM and the TGI [51] was 51.7 µM. The GI50 [52] was 1.91 µM, the TGI [52] was 46.4 µM and the GI50 [53] was 1.59 µM. The TGI [53] was 14.2 µM, the GI50 [54] was 6.92 µM and the TGI [54] was 60 µM. For the same molecule, the GI50 [55] was 23.9 µM, the TGI [55] was > 100 µM and the GI50 [56] was 4.48 µM. It also gave a TGI [56] of 18.2 µM, a GI50 [57] of 1.29 µM and a TGI [57] of 16.4 µM.
`Cc1[nH]nc2ccc(-c3nc4cnc(N5CCN(C)CC5)cn4c3Nc3ccc(F)cc3Br)cc12` was tested, and the GI50 [2] was 1.32 µM, the TGI [2] was 2.78 µM and the GI50 [3] was 2.81 µM. For the same molecule, the TGI [3] was 20.5 µM, the GI50 [4] was 1.72 µM and the TGI [4] was 3.39 µM. The GI50 [6] was 2.23 µM, the TGI [6] was 6.51 µM and the GI50 [7] was 2.25 µM. For the same molecule, the TGI [7] was 7.08 µM, the GI50 [9] was 1.99 µM and the TGI [9] was 3.93 µM. It also gave a GI50 [10] of 1.87 µM, a TGI [10] of 5.39 µM and a GI50 [11] of 2.11 µM. For the same molecule, the TGI [11] was 5.18 µM, the GI50 [13] was 1.73 µM and the TGI [13] was 3.38 µM. The GI50 [14] was 1.79 µM, the TGI [14] was 4.81 µM and the GI50 [15] was 2.23 µM. For the same molecule, the TGI [15] was 6.69 µM, the GI50 [16] was 1.59 µM and the TGI [16] was 3.67 µM. For the same molecule, the GI50 [17] was 2.44 µM, the TGI [17] was 6.43 µM and the GI50 [18] was 2.24 µM. For the same molecule, the TGI [18] was 5.08 µM, the GI50 [19] was 1.69 µM and the TGI [19] was 3.46 µM. For the same molecule, the GI50 [20] was 1.24 µM, the TGI [20] was 7.56 µM and the GI50 [21] was 3.67 µM. For the same molecule, the TGI [21] was 16.4 µM, the GI50 [24] was 1.51 µM and the TGI [24] was 3.14 µM. For the same molecule, the GI50 [25] was 1.48 µM, the TGI [25] was 2.9 µM and the GI50 [26] was 1.84 µM. The TGI [26] was 4.02 µM, the GI50 [27] was 1.87 µM and the TGI [27] was 3.83 µM. The GI50 [28] was 2.85 µM, the TGI [28] was 9.43 µM and the GI50 [30] was 1.83 µM. It also gave a TGI [30] of 3.6 µM, a GI50 [31] of 2.03 µM and a TGI [31] of 4.35 µM. It also gave a GI50 [32] of 2.01 µM, a TGI [32] of 4.72 µM and a GI50 [36] of 2.38 µM. The TGI [36] was 7.94 µM, the GI50 [37] was 2.29 µM and the TGI [37] was 6.31 µM. It also gave a GI50 [38] of 2.47 µM, a TGI [38] of 10.2 µM and a GI50 [39] of 2.16 µM. For the same molecule, the TGI [39] was 5.07 µM, the GI50 [58] was 1.57 µM and the TGI [58] was 3.2 µM. It also gave a GI50 [40] of 1.89 µM, a TGI [40] of 4.11 µM and a GI50 [41] of 1.61 µM. It also gave a TGI [41] of 3.29 µM, a GI50 [42] of 1.79 µM and a TGI [42] of 3.61 µM. It also gave a GI50 [43] of 2.84 µM, a TGI [43] of 7.9 µM and a GI50 [44] of 1.69 µM. For the same molecule, the TGI [44] was 3.2 µM, the GI50 [45] was 1.74 µM and the TGI [45] was 3.25 µM. The GI50 [46] was 2.08 µM, the TGI [46] was 5.09 µM and the GI50 [47] was 1.65 µM. It also gave a TGI [47] of 3.34 µM, a GI50 [48] of 2.87 µM and a TGI [48] of 10.4 µM. It also gave a GI50 [49] of 1.22 µM, a TGI [49] of 2.57 µM and a GI50 [50] of 0.303 µM. For the same molecule, the TGI [50] was > 100 µM, the GI50 [51] was 2.9 µM and the TGI [51] was 11 µM. The GI50 [52] was 1.95 µM, the TGI [52] was 5.07 µM and the GI50 [53] was 2.82 µM. It also gave a TGI [53] of 8.83 µM, a GI50 [54] of 2.43 µM and a TGI [54] of 8.04 µM. The GI50 [56] was 1.64 µM, the TGI [56] was 3.22 µM and the GI50 [57] was 1.34 µM. The TGI [57] was 2.93 µM.
